Patent US9586993B2, “CD44v6-derived peptides for treating pancreatic cancer” (AMCURE GMBH, priority 2012, dated 2017)
No end group written: not given here. *: point of attachment. DOTA = O=C(O)CN1CCN(CC(=O)O)CCN(CC(=O)*)CCN(CC(=O)O)CC1; PEG2000 = polyethylene glycol, 2000 Da; Myristoyl = CCCCCCCCCCCCCC(=O)*

Test system: L3.6p1 pancreatic carcinoma cells
Test: Human orthotopic model, L3.6p1 cells in the pancreas of nude mice
Type: in vivo, mouse
Settings: for outgrowth / size of the primary tumor: 20 μg per injection i.p. three times per week for three weeks; for outgrowth / size of the primary tumor / metastasis formation (liver): start one week after implantation; for metastasis formation (liver): 20 μg per injection i.p. three times per week
Method: In the case of the human orthotopic model, L3.6p1 pancreatic carcinoma cells (passage 24-26) were suspended in Hank's balanced salt solution (Invitrogen, Karlsruhe, Germany) after trypsinization. The cells were injected orthotopically in the pancreas of male nude mice as described (Bruns C J et al. (1999) Neoplasia 1(1):50-62). Two groups of 15 mice each were injected i.p. 7 days later with either the human v6 peptide respectively rat control peptide (20 μg). For all experiments described and depicted herein either the rat 14mer control peptide or the human 14mer peptide were used. All experiments were then repeated with the rat 5mer control peptide or the human 5mer peptide (N-R-W-H-E, SEQ ID NO: 2). […] The injection was repeated three times per week for 21 days. Two days after the last treatment the animals were killed.
7 μm thick paraffin sections were deparaffinized and rehydrated. For P-Met staining antigen unmasking was achieved by boiling the slides in 1 mM EDTA pH 8.0 followed by incubation for 15 minutes at a sub-boiling temperature, for CD31 staining the sections were treated with Proteinase K (8 μg/ml) for 10 min at 37° C. For immunofluorescence staining of P-Met, unspecific binding was blocked with 5% goat serum (DAKO, Glostrup, Denmark) (diluted in 1×PBS/0.3% Triton X-100) for 60 minutes. In the case of immunohistochemistry, endogenous peroxidases were at first blocked with 3% H2O2 in PBS followed by incubation with biotin blocking system (Dako, Glostrup, Denmark) and then unspecific binding was inhibited by incubation with 5% FCS in PBS. The sections were incubated with the P-Met antibody (D26, dilution 1:50 in 1×PBS/1% BSA/0.3% Triton X-100), Met antibody (C-28, dilution 1:50), GFP antibody (sc-101525, dilution 1:50) or antibody (5 μg/ml) over night or VFF18 (5 μg/ml) o/n at 4° C. After washing in PBS the sections were incubated with Alexa Fluor R 546 goat anti-rabbit (in case of immunofluorescence P-Met and Met staining, dilution 1:500) or a biotinylated secondary antibody (for immunohistochemical stainings rabbit anti-rat antibody for VFF18 and CD31, goat anti-rabbit for P-Met, cleaved Caspase-3 and cleaved Caspase-8 and rabbit anti-mouse for GFP, dilution 1:500) for 45 minutes. For DAB (3,3′-diaminobenzidine) staining the sections were treated with a streptavidin-peroxidase conjugate (Dako, Glostrup, Denmark) and developed with DAB substrate system (3,3′-diaminobenzidine; Biozol, Eching, Germany) For immunofluorescence DAPI was used for nuclear staining.
The three CD44v6 specific compounds (v6 5mer, PEG840-v6 5mer and PEG2000-v6 5mer of human origin) and a control peptide were applied in three concentrations (2 μg, 20 μg, 200 μg per injection) three times per week i.p. for 4 weeks. One week before start of the treatment the L3.6p1 tumor cells were orthotopically implanted into nude mice.
Animals were implanted orthotopically with L3.6p1 cells. Tumor growth was allowed for one week before the treatment with the linear v6 14mer, the cyclic v6 8mer as well as the control peptide (rat v6 14mer) was started. All peptides were injected three times per week at a concentration of 0.2, 2 and 10 μg per injection for 3 weeks. At the end of the treatment animals were sacrificed.
A comparison of different CD44v6 peptide derivatives was performed in animals bearing a orthotopic L3.6p1 tumor. 10 groups of 5 animals each received a dose of 20 μg peptide per injection three times per week for 3 weeks with the compounds listed in Table 4. Three weeks after starting the treatment the animals were sacrificed and analyzed for macroscopic metastases and tumor volume.

Row | Substance | outgrowth / size of the primary tumor | metastasis formation (liver) | side effects in the animals (200 μg per injection i.p. three times per week for 4 weeks) | outgrowth / size of the primary tumor (listed as PEGylated 14mer (PEG 2000))
1 | DOTA-cy[KRWHE] [cycl 5 mer] | strongest reduction of tumor size | complete inhibition of metastasis |  | 
2 | DOTA-keqwfGNRWHEGyr [DOTA CD44v6-14 [daa7]] |  | decrease of metastatic spreading |  | 
3 | Myr-KEQWFGNRWHEGYR (Myristoyl-KEQWFGNRWHEGYR) [Myristoyl-14-mer] | no inhibitory effect on tumor growth |  |  | 
4 | Myr-Y-cy[KGNRWHEG] (Myristoyl-YKGNRWHEG; also: cyclic, closure not given here, Myr-Tyr attached, site not given here) [Myr-Y-cycl 8 mer] | significant reduction in tumor growth | decrease of metastatic spreading |  | 
5 | NRWHE [human 5mer, NRWHE] |  |  | did not lead to side effects | 
6 | PEG840-KEQWFGNRWHEGYR-OH [PEG840 14-mer] | significant reduction in tumor growth | decrease of metastatic spreading |  | 
7 | PEG2000-KEQWFGNRWHEGYR-OH [PEG2000 14-mer] | strongest reduction of tumor size | decrease of metastatic spreading |  | significant reduction in tumor growth
8 | {DOTA}-KEQWFGNRWHEGYR [DOTA CD44v6-14 [r^14]] |  | complete inhibition of metastasis |  | 
